# Assay results: US20190008151A1, “PLANT DISEASE CONTROL COMPOSITION AND PLANT DISEASE CONTROL METHOD” (SUMITOMO CHEMICAL COMPANY, LIMITED, priority 2015, published 2019)
# Key:
# wheat leaf blight fungus = assay: Test Example 3: growth of wheat leaf blight fungus in YBG medium, microtiter plate, absorbance at 550 nm; assay type: cell-based; conditions: 18° C., six days
# Description: The present compound 1 or the present compound 2-1 was dissolved into dimethyl sulfoxide such that each concentration of the present compound 1 or the present compound 2-1 was adjusted to one hundred fifty times as much as the concentration indicated in the below-mentioned Table 4. The resultant agent solution was dispensed into a microliter plate (with 96 wells) in 1 μl portion thereof per well. One hundred forty nine (149) μl of YBG medium (which was prepared by dissolving 10 g of yeast extract, 10 g of Bacto Peptone, and 20 mL of glycerol into 1 L of water, followed by sterilizing the medium) was dispensed into the wells to which the agent solution(s) was/were dispensed. The plate was cultivated at 18° C. for six days, thereby allowing wheat leaf blight fungus to undergo proliferation, and the absorbance at 550 nm of each well of the micro titer plate was then measured to examine a degree of growth of the wheat leaf blight fungus (hereinafter referred to as “treated group”).
# Whereas, wheat leaf blight fungus was proliferated similarly to the case of the treated group except that dimethyl sulfoxide was used instead of the agent solution, and the degree of the growth was examined (hereinafter referred to as “untreated group”). The efficacy was calculated from the respective obtained degree of growth by the below-mentioned “Equation 1”.
# Efficacy(%)=100×(X−Y)/X Equation 1 […]
# [1] = tested on: wheat rust fungus (Puccinia recondite); assay: Test Example 4: foliar spray of flowable formulations on wheat, inoculation with wheat rust fungus, lesion area; assay type: in vivo, Puccinia recondite on wheat (cultivar. Shirogane); conditions: lesion area after ten days at 23° C.
# Description: Five (5) parts of the present compound 1, 35 parts of a mixture of white carbon and ammonium polyoxyethylene alkyl ether sulfate (the weight ratio of 1:1) and […] of water were mixed, and the mixture was then finely-ground by a wet grinding method to obtain a flowable formulation comprising the present compound 1. Separately, the flowable formulation comprising the present compound 2-1 was prepared according to the above-mentioned similar method except that the present compound 2-1 was used instead of the present compound 1 to form a flowable formulation comprising the present compound 2-1.
# Each of the above-mentioned respective flowable formulations, and the flowable formulation comprising the present compound 1 and the present compound 2-1 that was prepared according to the above-mentioned Formulation Example 3 was diluted with water such that each concentration of the respective compounds in the dilution solutions was adjusted to that indicated in Table 5, to prepare the dilution solutions, respectively.
# A plastic pot was filled with soil, and thereto wheat (cultivar. Shirogane) was seeded, and the plants were grown in a greenhouse for ten days. […]
# From each of the lesion area of the treated group and the untreated group, respectively, the efficacy of the treated group was calculated by the below-mentioned Equation 2. […]
compound,measurement,setting,value
CNC(=O)C(OC)c1ccccc1COc1cc(C)ccc1C (stereo not shown) [Present compound 1],Efficacy (%),wheat leaf blight fungus; concentration in medium 0.005 ppm,20%
same,Efficacy (%),wheat leaf blight fungus; concentration in medium 0.1 ppm,65%
same,Efficacy (%),[1]; concentration 0.0005 ppm,22%
same,Efficacy (%),[1]; concentration 0.01 ppm,46%
